biological target: T1, TGFβ R1 (Homo sapiens, UniProt P36897); assay: TGFβ R1 autophosphorylation protocol (33P-ATP, phosphocellulose filter plate); format: biochemical; conditions: 10 uM ATP, 170 nM TGFβ R1, 20 minutes at room temperature, read-out: IC50 for Kinase Inhibition
T1 sequence (P36897 34-503): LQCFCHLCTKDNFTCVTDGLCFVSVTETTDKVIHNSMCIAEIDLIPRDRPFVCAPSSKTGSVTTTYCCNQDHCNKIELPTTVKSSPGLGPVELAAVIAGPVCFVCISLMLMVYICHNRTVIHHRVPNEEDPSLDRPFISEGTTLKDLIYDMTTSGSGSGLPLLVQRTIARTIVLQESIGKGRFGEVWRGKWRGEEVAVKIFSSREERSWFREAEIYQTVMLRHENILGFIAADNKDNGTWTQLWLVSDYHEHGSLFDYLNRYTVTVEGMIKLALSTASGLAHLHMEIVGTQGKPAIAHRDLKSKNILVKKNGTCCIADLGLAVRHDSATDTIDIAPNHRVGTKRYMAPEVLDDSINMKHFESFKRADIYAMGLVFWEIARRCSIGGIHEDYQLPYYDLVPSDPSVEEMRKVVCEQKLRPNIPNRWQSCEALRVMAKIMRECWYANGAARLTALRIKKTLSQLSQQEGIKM
Method in brief: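 Radiometric autophosphorylation: 170 nM enzyme with compound (≤1% DMSO), 10 uM ATP plus γ-33P-ATP, […] in 20 mM MOPS pH 7, 20 min at room temperature. Reaction stopped on phosphocellulose filter, washed with H3PO4 and ethanol, counted by scintillation.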

SMILES	IC50 [nM]
COc1cnc(-c2cc(Cl)ccc2F)nc1Nc1ccncc1C(=O)N[C@H]1CN[C@@H](C(=O)N(C)C)C1 [Compound 107, 4-[2-(5-Chloro-2-fluoro-phenyl)-5-methoxy-pyrimidin-4-ylamino]-N-(5-dimethylcarbamoyl-pyrrolidin-3-yl)-nicotinamide]	90
O=C(NC1CC1)c1cnccc1Nc1nc(-c2cc(Cl)ccc2F)ncc1Br [Compound 108, 4-[5-Bromo-2-(5-chloro-2-fluoro-phenyl)-pyrimidin-4-ylamino]-N-cyclopropyl-nicotinamide]	2500
COc1cnc(-c2cc(Cl)ccc2F)nc1Nc1ccncc1C(=O)NCCCN1CC[C@H](O)C1 [Compound 109, 4-[2-(5-Chloro-2-fluoro-phenyl)-5-methoxy-pyrimidin-4-ylamino]-N-[3-(3-hydroxy-pyrolidin-1-yl)-propyl]-nicotinamide]	330
CC(C)c1cnc(-c2cc(Cl)ccc2F)nc1Nc1ccncc1C(=O)NC1CNC1 [Compound 111, N-Azetidin-3-yl-4-[2-(5-chloro-2-fluoro-phenyl)-5-isopropyl-pyrimidin-4-ylamino]-nicotinamide]	20
COc1cnc(-c2cc(Cl)ccc2F)nc1Nc1ccncc1C(=O)NCCNCC(C)(C)O [Compound 112, 4-[2-(5-Chloro-2-fluoro-phenyl)-5-methoxy-pyrimidin-4-ylamino]-N-[2-(2-hydroxy-2-methyl-propylamino)-ethyl]-nicotinamide]	90
CC(C)c1cnc(-c2cc(Cl)ccc2F)nc1Nc1ccncc1C(=O)NCCCN1CC[C@@H](O)C1 [Compound 113, 4-[2-(5-Chloro-2-fluoro-phenyl)-5-isopropyl-pyrimidin-4-ylamino]-N-[3-(3-hydroxy-pyrrolidin-1-yl)-propyl]-nicotinamide]	40
COc1cnc(-c2cc(Cl)ccc2F)nc1Nc1cc[n+]([O-])cc1C(=O)NC1CC1 [Compound 114, 4-[2-(5-Chloro-2-fluoro-phenyl)-5-methoxy-pyrimidin-4-ylamino]-N-cyclopropyl-1-oxy-nicotinamide]	3080

Further lines, results first:

IC50 [nM]	SMILES
7370	COc1cnc(-c2cc(Cl)ccc2F)nc1Nc1ccncc1C(=O)N1CCN(CCO)CC1 [Compound 116, {4-[2-(5-Chloro-2-fluoro-phenyl)5-methoxy-pyrimidin-4-ylamino]pyridin-3-yl}-[4-(2-hydroxy-ethyl)-piperazin-1-yl]-methanone]
6780	COc1cnc(-c2cc(Cl)ccc2F)nc1Nc1ccncc1C(=O)N1CCNCC1 [Compound 117, {4-[2-(5-Chloro-2-fluoro-phenyl)-5-methoxy-pyrimidin-4-ylamino]-pyridin-3-yl}-piperazin-1-yl-methanone]
6570	COc1cnc(-c2cc(Cl)ccc2F)nc1Nc1ccncc1C(=O)N1CCN(C)CC1 [Compound 118, {4-[2-(5-Chloro-2-fluoro-phenyl)-5-methoxy-pyrimidin-4-ylamino]-pyridin-3-yl}-(4-methyl-piperazin-1-yl)-methanone]
155	CNC(=O)c1cnccc1Nc1nc(-c2cc(Cl)ccc2F)ncc1Cl [Compound 119, 4-[5-Chloro-2-(5-chloro-2-fluoro-phenyl)-pyrimidin-4-ylamino]-N-methyl-nicotinamide]
190	CONC(=O)c1cnccc1Nc1nc(-c2cc(Cl)ccc2F)ncc1OC [Compound 120, 4-[2-(5-Chloro-2-fluoro-phenyl)-5-methoxy-pyrimidin-4-ylamino]-N-methoxy-nicotinamide]
5770	CCOP(=O)(OCC)O[C@@H](C)CNC(=O)c1cnccc1Nc1nc(-c2cc(Cl)ccc2F)ncc1OC [Compound 121, Phosphoric acid 2-({4-[2-(5-chloro-2-fluoro-phenyl)-5-methoxy-pyrimidin-4-ylamino]-pyridine-3-carbonyl}-amino)-1-methyl-ethyl ester diethyl ester]
53	CNC(=O)[C@@H]1CCCN1CCCNC(=O)c1cnccc1Nc1nc(-c2cc(Cl)ccc2F)ncc1OC [Compound 122, 4-[2-(5-Chloro-2-fluoro-phenyl)-5-methoxy-pyrimidin-4-ylamino]-N-[3-(2-methylcarbamoyl-pyrrolidin-1-yl)-propyl]-nicotinamide]

From patent US20060281763A1, “Carboxamide inhibitors of TGFbeta” (priority 2005, published 2006)
